Columns and labels:
[1] = Novelty Suppressed Feeding Test (NSFT), separated BALB/c mice; assay type: in vivo; conditions: compounds 1 mg/kg i.p., day 9
Procedure: (§1) Novelty suppressed feeding test (NSFT): After the last treatment injection, all food is removed from the cage for 24 hours (water available ad libitum). At the end of this time, the animal is introduced into a 50×50×20 (height) cm wooden arena the floor of which is marked with equal rectangles of 10×10 cm. A pellet of food is placed on an elevated surface in the center of the arena. The time elapsing from the introduction of the animal into the arena until it commences eating (latency to feed) is recorded. The animal is removed from the arena immediately after it begins to eat or after not doing so for 5 min. During the test, the number of lines crossed by the animal is counted as a measure of motor activity, and calibrated for 5 min if the animal started eating before that. After the test, the animal is immediately transferred to its home cage and left to consume a previously weighed amount of food for 10 minutes. On completion of this period the food is weighed again to calculate the home cage food consumption.
(§2) 50, 2 month old female BALB/c mice, 10 mice per group, on ad libitum diet were separated (each mouse in a different cage) for 9 days (Separation Stress, a model for depression). On the 7, 8, 9, 34-40, days mice were administered with either vehicle or compounds x, 12 and 15 (1 mg/kg i.p.) or imipramine 10 mg/kg (antidepressant) i.p. and tested in Novel Suppressed Feeding Test on day 9.
as §1, with “FIGS. 9A-9C show the results of the NSFT. […]” for “Novelty suppressed feeding test (NSFT):”, “hours.” for “hours (water available ad libitum).”, “into” for “into a 50×50×20 (height) cm wooden arena”, “open field test.” for “floor of which is marked with equal rectangles of 10×10 cm.”, “to find” for “elapsing from”, “food was” for “introduction of the animal into the arena until it commences eating (latency to feed) is”

serotonin (5HT) levels = assay: Serotonin (5HT) determination in brain tissue by HPLC with electrochemical detection; assay type: in vivo, mice; conditions: for 5HT: ng/g wet tissue +/− SEM; for 5HT levels in the hippocampus vs. control / 5HT levels in the hypothalamus vs. control: result in words
Procedure: (§3) Solution of DHBA as internal standard in the concentration of: 1 μg/ml in 0.1M perchloric acid, were prepared. Standard solutions of NE and 5HT in the concentration of 1-0.1 μg/ml in 0.1M perchloric acid were prepared.
(§4) Tissues (hypothalamus and hippocampus) obtained from 6-8 mice were dissected on ice surface and kept at −80 C. Hypothalamus (HT) or hippocampus (HC) from 1 mice were weighted (weight of HT −10-20 mg, HC 30-40 mg) and placed in eppendorf micro-centrifuge tube, 1.5 ml. To each tube was added 120-160 μl of ice cold solution of Perchloric acid and DHBA, homogenized in ice bath on Sonics vibra cell, 3×20 sec., 0.4 watts and centrifuged at 14,000×g at 4° C. 10 min. Supernatant gained was stored in ice before analysis.
(§5) The HPLC system consisted of Jasco PU-980 pump, Jasco AS-950-10 autosampler cooled at 4° C., H3 ODS-125A 3 μm 125 mm×4.6 mm i.d. analytical column (Hichrom, UK) were used. Electrochemical detector Coulochem ESA 5100A with analytical cell model 5011 was used for control detector voltage and record the current. Working electrode was set at potential +350 mV. Control and data collection/processing were handled through Borwin chromatography software.
(§6) The mobile phase composition: A stock buffer was prepared as follows: 20 mM sodium dihydrogenorthophosphate, EDTA 3 mg/l, 1-heptanesulfonic acid 1 g/l were dissolved in 1 liter deionized distilled water and buffered to pH 3.7 using concentrated phosphoric acid. To prepare the mobile phase buffer was mixed with acetonitrile (Baker HPLC analyzed) in the ratio 85:15 (v/v), filtered through a 0.2 μm membrane filter and degassed under vacuum after mixing. Mobile phase flow rate 1 ml/min. Injection volume 20 μl, retention time for DHBA 4.2 min., norepinephrine—3.1 min., 5HT 8.6 min. For calibration curve 1 ug/ml solution of DHBA together with 1.0-0.1 μg/ml solutions of 5HT and NE were used. The ratio between 5HT or NE and DHBA used to calculate the level of 5HT and NE in the sample. Date are given in ng/g wet tissue +/−SEM.

[2] = system: Norepinephrine (NE) levels; assay: Norepinephrine (NE) determination in brain tissue by HPLC with electrochemical detection; assay type: in vivo, mice; conditions: for NE: ng/g wet tissue +/− SEM; for norepinephrine levels in the hippocampus vs. control / norepinephrine levels in the hypothalamus vs. control: result in words
Procedure: as §3, §4, §5, §6

P-AMPK protein = P-AMPK protein levels by western blot; assay type: in vivo, BALB/c mice
Procedure: as §2, with “34-40” for “34-40,”, “(antidepressant). P-AMPK protein was monitored by western blot. […] (p<0.05a).” for “(antidepressant) i.p. and tested in Novel Suppressed Feeding Test on day 9.”

[3] = Tail Suspension Test, compound X dose study; assay type: in vivo, BALB/c mice; conditions: 10 mg/kg i.p.; day 23; more than imipramine and other concentrations
Text: Tail suspension test (TST): Animals are suspended upside down by adhesive tape placed 1 cm from the tail tip. The elevation of the animal is 50 cm from the nearest surface. […] Statistical analysis compares the magnitude of immobility (in seconds) between different treatment groups. In this test, antidepressants characteristically cause an increase of the time fraction spent by the animal as active at the expense of the inactivity period.
50, 2 month old BALB/c mice, 10 mice per group, on ad libitum diet were divided to 5 experimental groups with equal weight. On the 2, 3, 4, 5, 9, 11, 16, 18, 23, 25, 29, 31 days mice were administered with either vehicle or compound x 0.1, 1, 10 mg/kg i.p. or imipramine 10 mg/kg.

Structure (SMILES): CCCCCCCC/C=C\CCCCCCCC(=O)N[C@H](CO)C(C)C [Compound 1, oleoyl-L-valinol amide]
- food intake in NSFT ([1]; in relation to vehicle and more than imipramine 10 mg/kg): significantly enhanced food intake
- motor activity in NSFT ([1]; resembled imipramine 10 mg/kg): enhanced motor activity
- 5HT (serotonin (5HT) levels; Hippocampus): 342.2 ± 33 ng/g
- 5HT (serotonin (5HT) levels; Hypothalamus): 854.4 ± 16.8 ng/g
- 5HT levels in the hippocampus vs. control (serotonin (5HT) levels): significantly enhanced
- 5HT levels in the hippocampus vs. control (serotonin (5HT) levels; listed as X): increased significantly
- 5HT levels in the hypothalamus vs. control (serotonin (5HT) levels): significantly enhanced
- 5HT levels in the hypothalamus vs. control (serotonin (5HT) levels; listed as X): increased significantly
- NE ([2]; Hippocampus): 283.28 ± 24 ng/g
- NE ([2]; Hypothalamus): 1090 ± 10.4 ng/g
- norepinephrine levels in the hippocampus vs. control [2]: significantly enhanced
- norepinephrine levels in the hippocampus vs. control ([2]; listed as X): increase significantly
- norepinephrine levels in the hypothalamus vs. control [2]: significantly enhanced
- norepinephrine levels in the hypothalamus vs. control ([2]; listed as X): increased significantly
- P-AMPK protein in the hippocampus (P-AMPK protein; hippocampus, FIG. 14A): significant increase
- P-AMPK protein in the hypothalamus (P-AMPK protein; hypothalamus, FIG. 14B): significant increase
- motor activity in Tail Suspension Test [3]: improved significantly motor activity

— patent US20150202179A1, “FATTY ACID DERIVATIVES FOR USE IN A METHOD OF TREATING DEPRESSION AND ASSOCIATED CONDITIONS” (YISSUM RESEARCH DEVELOPMENT COMPANY OF THE HEBREW …, priority 2012, published 2015)
